± gives the expanded uncertainty stated by the source.

Data on five compounds can be found in the NIST ThermoML archive (doi:10.1016/j.fluid.2007.10.004).

For this data set the following is noted: Capillary rise.

In general, surface tension liquid-gas refers to the work needed to enlarge the surface of a liquid by unit area. As to `CCCCn1cc[n+](C)c1.F[P-](F)(F)(F)(F)F` [1-butyl-3-methylimidazolium hexafluorophosphate], the surface tension liquid-gas was found to be 47.5 ± 1.3 mN/m (298 K); 47.2 ± 1.3 mN/m (303 K); 46.9 ± 1.3 mN/m (308 K); 46.5 ± 1.3 mN/m (313 K); 46 ± 1.3 mN/m (318 K); 45.6 ± 1.3 mN/m (323 K). In addition, the surface tension liquid-gas was determined as 45.3 ± 1.3 mN/m (328 K); 44.9 ± 1.3 mN/m (333 K); 44.6 ± 1.3 mN/m (338 K); 44.3 ± 1.3 mN/m (343 K); 43.8 ± 1.3 mN/m (348 K); 43.5 ± 1.3 mN/m (353 K). Also, the surface tension liquid-gas reads like this: (358 K) 43.1 ± 1.2 mN/m; (363 K) 42.8 ± 1.2 mN/m; (368 K) 42.4 ± 1.2 mN/m; (373 K) 42.1 ± 1.2 mN/m; (378 K) 41.7 ± 1.2 mN/m; (383 K) 41.3 ± 1.2 mN/m. The surface tension liquid-gas (388 K) turned out to be 41.1 ± 1.2 mN/m and the surface tension liquid-gas (393 K) amounted to 40.8 ± 1.2 mN/m.
With `CCCCn1cc[n+](C)c1.F[B-](F)(F)F` [1-butyl-3-methylimidazolium tetrafluoroborate], the surface tension liquid-gas is recorded as 43.6 ± 1.3 mN/m (298 K); 43.3 ± 1.2 mN/m (303 K); 43 ± 1.2 mN/m (308 K); 42.7 ± 1.2 mN/m (313 K); 42.3 ± 1.2 mN/m (318 K); 42 ± 1.2 mN/m (323 K). For the same compound, the surface tension liquid-gas worked out at 41.8 ± 1.2 mN/m (328 K); 41.5 ± 1.2 mN/m (333 K); 41.2 ± 1.2 mN/m (338 K); 40.9 ± 1.2 mN/m (343 K); 40.7 ± 1.2 mN/m (348 K); 40.4 ± 1.2 mN/m (353 K). Further, the surface tension liquid-gas amounted to 40.2 ± 1.2 mN/m (358 K); 39.8 ± 1.2 mN/m (363 K); 39.5 ± 1.2 mN/m (368 K); 39.2 ± 1.2 mN/m (373 K); 39 ± 1.2 mN/m (378 K); 38.8 ± 1.1 mN/m (383 K). In addition, the surface tension liquid-gas (388 K) turned out to be 38.5 ± 1.1 mN/m and the surface tension liquid-gas (393 K) is 38.2 ± 1.1 mN/m.
Regarding `CCCCn1cc[n+](C)c1.[Cl-]` [1-butyl-3-methylimidazolium chloride], the surface tension liquid-gas is 48.2 ± 1.4 mN/m (298 K); 47.8 ± 1.3 mN/m (303 K); 47.5 ± 1.3 mN/m (308 K); 47.2 ± 1.3 mN/m (313 K); 46.9 ± 1.3 mN/m (318 K); 46.6 ± 1.3 mN/m (323 K). Besides, the surface tension liquid-gas came out at 46.3 ± 1.3 mN/m (328 K); 46 ± 1.3 mN/m (333 K); 45.6 ± 1.3 mN/m (338 K); 45.3 ± 1.3 mN/m (343 K); 45 ± 1.3 mN/m (348 K); 44.7 ± 1.3 mN/m (353 K). Further, the surface tension liquid-gas stood at 44.4 ± 1.3 mN/m (358 K); 43.9 ± 1.3 mN/m (363 K); 43.6 ± 1.3 mN/m (368 K); 43.2 ± 1.2 mN/m (373 K); 42.9 ± 1.2 mN/m (378 K); 42.5 ± 1.2 mN/m (383 K). The surface tension liquid-gas (388 K) was 42.2 ± 1.2 mN/m and the surface tension liquid-gas (393 K) is recorded as 41.8 ± 1.2 mN/m.
For `CCCCCCn1cc[n+](C)c1.[I-]` [1-hexyl-3-methylimidazolium iodide], the surface tension liquid-gas reads like this: (298 K) 43.5 ± 1.3 mN/m; (303 K) 43.1 ± 1.2 mN/m; (308 K) 42.7 ± 1.2 mN/m; (313 K) 42.3 ± 1.2 mN/m; (318 K) 41.9 ± 1.2 mN/m; (323 K) 41.5 ± 1.2 mN/m. Also, the surface tension liquid-gas reads like this: (328 K) 41.1 ± 1.2 mN/m; (333 K) 40.8 ± 1.2 mN/m; (338 K) 40.4 ± 1.2 mN/m; (343 K) 40.1 ± 1.2 mN/m; (348 K) 39.7 ± 1.2 mN/m; (353 K) 39.4 ± 1.2 mN/m. Besides, the surface tension liquid-gas reads like this: (358 K) 39 ± 1.2 mN/m; (363 K) 38.6 ± 1.1 mN/m; (368 K) 38.3 ± 1.1 mN/m; (373 K) 37.9 ± 1.1 mN/m; (378 K) 37.6 ± 1.1 mN/m; (383 K) 37.2 ± 1.1 mN/m. Also, the surface tension liquid-gas came to 36.8 ± 1.1 mN/m (388 K) and 36.5 ± 1.1 mN/m (393 K).
Regarding `CCCCCCn1cc[n+](C)c1.F[B-](F)(F)F` [1-hexyl-3-methylimidazolium tetrafluoroborate], the surface tension liquid-gas stood at 39.2 ± 1.2 mN/m (298 K); 38.9 ± 1.2 mN/m (303 K); 38.7 ± 1.1 mN/m (308 K); 38.4 ± 1.1 mN/m (313 K); 38.1 ± 1.1 mN/m (318 K); 37.9 ± 1.1 mN/m (323 K). The surface tension liquid-gas reads like this: (328 K) 37.7 ± 1.1 mN/m; (333 K) 37.5 ± 1.1 mN/m; (338 K) 37.2 ± 1.1 mN/m; (343 K) 36.9 ± 1.1 mN/m; (348 K) 36.6 ± 1.1 mN/m; (353 K) 36.4 ± 1.1 mN/m. In addition, the surface tension liquid-gas runs as follows: (358 K) 36.2 ± 1.1 mN/m; (363 K) 35.8 ± 1.1 mN/m; (368 K) 35.6 ± 1.1 mN/m; (373 K) 35.4 ± 1.1 mN/m; (378 K) 35.1 ± 1.1 mN/m; (383 K) 34.9 ± 1.1 mN/m. For the same compound, the surface tension liquid-gas is, setting by setting: (388 K) 34.6 ± 1.1 mN/m; (393 K) 34.3 ± 1.1 mN/m.
